Experimental data as given in ChEMBL document CHEMBL1128241, “Molecular similarity matrices and quantitative structure-activity relationships: a case study with methodological implications” (J Med Chem, 1995).

Assay: Partition coefficient (logP)
Assay type: physicochemical
Settings: octanol/water
`ClC(Cl)C(Cl)(Cl)Cl` [PENTACHLOROETHANE] showed a logP of 5.72.
Work on `ClC=C(Cl)Cl` [TRICHLOROETHYLENE] yielded a logP of 0.96.
In the case of `ClC(Cl)=C(Cl)Cl` [TETRACHLOROETHYLENE], the logP is reported as 1.27.

Same assay, conditions: octanol/water; read-out: logP
For `CCCCCBr`, the logP was 3.25.
Work on `CC(Cl)CCCl` (stereo not drawn) yielded a logP of 2.28.
For `ClC(Cl)Br` [BROMODICHLOROMETHANE], the logP was 2.67.
`ClCC=C(Cl)Cl` showed a logP of 1.5.
`CCC(C)(C)Br` gave a logP of 2.99.
Compound `ClCC(Cl)(Cl)Cl` has a logP of 3.05.
For `ClC(Cl)(Cl)Cl` [CARBON TETRACHLORIDE], the logP was 2.83.
`CC(C)(C)Cl` showed a logP of 2.44.
In the case of `CC(C)CBr`, the logP is reported as 2.58.
Work on `CCBr` [BROMOETHANE] yielded a logP of 1.63.
Work on `CCCCCCCl` yielded a logP of 3.65.
For `CC(C)=CBr`, the logP was 1.8.
`CC(C)(C)Br` showed a logP of 2.45.
Compound `BrC(Br)Br` [BROMOFORM] has a logP of 2.38.
Compound `ClCCCCl` has a logP of 1.74.
Work on `CC(Cl)(Cl)Cl` [TRICHLOROETHANE] yielded a logP of 2.5.
With `Cl/C=C/CCl` [1,3-DICHLOROPROPENE] the logP was 1.19.
With `CCCCCCCCCl` the logP was 4.85.
Work on `CCCCBr` [1-BROMOBUTANE] yielded a logP of 2.71.
With `CCC(C)Cl` (stereo not drawn) the logP was 2.57.
With `CCC(C)CBr` (stereo not drawn) the logP was 3.12.
`ClCC(Cl)CCl` [1,2,3-TRICHLOROPROPANE] showed a logP of 2.01.
With `CC(C)CCl` the logP was 2.44.
With `CC(Cl)C(C)Cl` (stereo not drawn) the logP was 2.56.
For `CC(Cl)CCl` (stereo not drawn), the logP was 2.02.
For `ClCCCBr`, the logP was 1.88.
With `ClCCl` [METHYLENE CHLORIDE] the logP was 1.26.
Compound `C=C(C)CCl` has a logP of 1.89.
`Cl/C=C/Cl` gave a logP of 0.65.
`FC(Cl)(Cl)Cl` [TRICHLOROMONOFLUOROMETHANE] gave a logP of 2.29.
With `ClC(Cl)(Cl)Br` the logP was 3.1.
Compound `CC(Br)CCl` (stereo not drawn) has a logP of 2.16.
`ClCCBr` gave a logP of 1.62.
With `CC(C)(Cl)Cl` the logP was 2.34.
For `C=C(CCl)CCl`, the logP was 2.01.
`C/C(Cl)=C/Cl` showed a logP of 1.79.
`C=C(Cl)Cl` [1,1-DICHLOROETHENE] gave a logP of 1.21.
`CC(C)CCBr` showed a logP of 3.12.
For `ClC(Br)Br` [DIBROMOCHLOROMETHANE], the logP was 2.48.
Work on `CC(Cl)Cl` yielded a logP of 1.8.
For `FC(Cl)(Br)Br`, the logP was 2.8.
Work on `CCCCCCCCBr` yielded a logP of 4.87.
`C=C(Cl)CCl` showed a logP of 1.75.
Compound `ClCCCCBr` has a logP of 2.42.
`CCC(C)Br` (stereo not drawn) showed a logP of 2.71.
With `CC(C)=CCl` the logP was 1.89.
In the case of `ClCBr`, the logP is reported as 1.4.
With `CCCCCCl` the logP was 3.11.
For `ClC(Cl)C(Cl)Cl` [1,1,2,2-TETRACHLOROETHANE], the logP was 2.66.
`ClC(Cl)(Cl)C(Cl)(Cl)Cl` [HEXACHLOROETHANE] showed a logP of 4.62.
